Measurements from ChEMBL document CHEMBL3580612, “Top-down Targeted Metabolomics Reveals a Sulfur-Containing Metabolite with Inhibitory Activity against Angiotensin-Converting Enzyme in Asparagus officinalis” (J Nat Prod, 2015).

Biological target: Angiotensin-converting enzyme (Homo sapiens, UniProt P12821)
Assay: Inhibition of ACE (unknown origin) using 3-Hydroxybutylyl-Gly-Gly-Gly substrate assessed as reduction in 3-Hyroxybutylic acid generation incubated for 1 hr by colorimetric assay; call rule not given here

Sequence of Angiotensin-converting enzyme (P12821 whole entry): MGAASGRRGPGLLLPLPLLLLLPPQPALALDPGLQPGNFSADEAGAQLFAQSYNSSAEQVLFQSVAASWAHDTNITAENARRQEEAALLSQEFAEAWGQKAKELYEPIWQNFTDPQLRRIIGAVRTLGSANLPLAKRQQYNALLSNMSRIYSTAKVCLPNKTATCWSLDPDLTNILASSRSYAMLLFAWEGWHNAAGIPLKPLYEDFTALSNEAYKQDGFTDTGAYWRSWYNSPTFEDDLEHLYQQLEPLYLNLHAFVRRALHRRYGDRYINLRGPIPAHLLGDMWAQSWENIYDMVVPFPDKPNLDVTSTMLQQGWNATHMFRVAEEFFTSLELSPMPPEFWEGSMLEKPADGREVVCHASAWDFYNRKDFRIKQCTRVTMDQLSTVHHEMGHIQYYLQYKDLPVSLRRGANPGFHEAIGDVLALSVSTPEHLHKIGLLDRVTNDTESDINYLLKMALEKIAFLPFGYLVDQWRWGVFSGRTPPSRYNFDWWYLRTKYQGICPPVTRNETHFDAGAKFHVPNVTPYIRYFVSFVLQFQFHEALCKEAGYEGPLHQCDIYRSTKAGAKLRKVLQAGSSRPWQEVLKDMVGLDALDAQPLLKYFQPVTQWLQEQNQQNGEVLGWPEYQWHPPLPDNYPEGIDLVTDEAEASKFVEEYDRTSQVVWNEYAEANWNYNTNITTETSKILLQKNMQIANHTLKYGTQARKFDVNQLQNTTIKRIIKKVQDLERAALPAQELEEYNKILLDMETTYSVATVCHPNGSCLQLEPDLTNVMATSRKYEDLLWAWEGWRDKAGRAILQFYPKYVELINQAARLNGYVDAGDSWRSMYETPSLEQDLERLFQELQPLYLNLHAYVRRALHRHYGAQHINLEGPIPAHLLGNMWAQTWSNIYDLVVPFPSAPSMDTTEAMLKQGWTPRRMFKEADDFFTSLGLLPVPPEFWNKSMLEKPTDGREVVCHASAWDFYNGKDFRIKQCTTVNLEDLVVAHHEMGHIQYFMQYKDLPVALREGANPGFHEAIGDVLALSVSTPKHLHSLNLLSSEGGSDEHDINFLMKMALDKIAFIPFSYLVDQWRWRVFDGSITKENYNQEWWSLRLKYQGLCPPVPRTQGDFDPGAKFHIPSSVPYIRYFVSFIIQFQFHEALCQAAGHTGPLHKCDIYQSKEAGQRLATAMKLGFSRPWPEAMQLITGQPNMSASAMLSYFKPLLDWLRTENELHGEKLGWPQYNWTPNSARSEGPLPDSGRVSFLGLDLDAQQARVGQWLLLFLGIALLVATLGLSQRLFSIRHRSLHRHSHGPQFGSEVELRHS

IC50 (read-out: IC50) | Structure (SMILES) | IC50
347 µM | O=C(OC1O[C@H](CO)[C@@H](O)[C@H](O)[C@H]1O)C1CSSC1 (stereo not given in full) | –
– | N[C@@H](CC(=O)O)C(=O)O [ASPARTIC ACID] | Not Active
– | O=C(O)C1CSSC1 | Not Active
– | N=C(N)NCCC[C@H](N)C(=O)O [ARGININE] | Not Active
– | N=C(N)NCCC[C@@H](N)C(=O)O | Not Active
